The values below are quoted from earlier work in patent publication US20070031339A1, “Contrast agents” (priority 2003, published 2007).

The conditions of this data set: aqueous solution at 350 mg iodine/ml, 37° C.

As for `C[C@H](O)C(=O)Nc1c(I)c(C(=O)NC(CO)CO)c(I)c(C(=O)NC(CO)CO)c1I` [lopamidol], the Viscosity is 7.6 mPas.
